Read-outs that look alike come from different tables or passages of the source.
Tests used:
BALB/C mice = assay: Maximum tolerated dose (MTD) / acute toxicity by single intravenous injection; details: for MTD (maximum tolerated dose): intravenous injection, one time
[1] = tested on: Human prostate cancer PC-3 cells / Panc-1 cells; assay: Tumor treatment in nude mice (PC-3 cells purchased, Panc-1 cells injected; Examples 22, 32, 42); format: in vivo; details: for Size of tumor (mm^3) Day 10 / inhibitory rate on tumor Day 10 / Size of tumor (mm^3) Day 24 / inhibitory rate on tumor Day 24: nude mice, IV once weekly for four weeks; for Inhibition on tumor growth, in words: compared with parent drug group (same molar concentration) and control group
Description: (§1) 1) Human prostate cancer PC-3 cells were purchased from American type culture collection (ATCC) and identified according the specification provided by ATCC. Cells were cultivated in DMEM culture solution containing 10% fetal bovine serum at 37° C. and 5% CO2. The cells were passaged for every three days and cells within the 15th passage were used.
2) Production of tumor. 5×10^6Panc-1 cells were subcutaneously injected to the back of the nude mice. Mice were randomly grouped after the tumor reached at least 100 mm^3. Then treatment began and the day on which the treatment began was day 1.
The control group was administered by physiological saline. Drugs were administered once weekly for four weeks.
According to the clinical application of B1, B2, B3 and B4, drugs were intravenously injected (IV). […] The control group was administered by physiological saline. Drugs were administered once weekly for four weeks.

[2] = Solubility / formulation test in solvent 1 and solvent 2; format: physicochemical; details: for Concentration achieved, completely dissolved in both solvent 1 and solvent 2: solvent 1 injectable water
Description: In Table 11, AAN, AANL and AANK indicate the linkage formed by small peptides in the compounds, A is Ala, N is Asn, L is Leu and K is Lys. […] The dissolution concentration is 10 mg/ml.
B1, B2, B3 and B4 and various control compounds were dried under vacuum, sterilized via gas sterilization, and separately packing in a sterile room. Before animal test, B1, B2, B3 and B4 were dissolved by solvent 1 (injectable water) or solvent 2 (30% alcohol, 70% injectable water) and diluted by injectable water to the desired concentration in sterile room. […] Change in solubility may greatly affect the formulation scheme of a drug.
D1, D2, D3, D4 and various control compounds were dried under vacuum, sterilized via gas sterilization, and separately packing in a sterile room. […] Change in solubility may greatly affect the formulation scheme of a drug.

Human heart = format: biochemical
4T1 cells = assay: BALB/C mice model for tumor metastasis (4T1, lung metastases); format: in vivo; details: for Inhibitory rate on metastasis / Number of metastasized tumor: IV every three days for 4 times; for Inhibitory effect on tumor metastasis, in words: compared with parent drug group and control group
Description: as §1, with “4T1” for “Human prostate cancer PC-3”
2) Production of tumor metastasis. 10^6 […] were subcutaneously injected to the back of the BALB/C mice. Mice were randomly grouped after the tumor grew to about 1.5 cm. The subcutaneous tumor was removed by surgery and drug treatment began. Mice were killed after anesthesia on day 27. The whole lung was taken out and put into Bouin's solution for staining. The number of the tumor metastasized to lung was counted with anatomical microscope.
(§2) The control group was administered by physiological saline. Drugs were administered once for every three days for 4 times.
as §2
According to the clinical application of B1, B2, B3 and B4, drugs were intravenously injected (IV). […] The control group was administered by physiological saline. Drugs were administered once for every three days for 4 times.
According to the clinical application of D1, D2, D3 and D4, drugs were intravenously injected (IV). […] The control group was administered by physiological saline. Drugs were administered once for every three days for 4 times.

[3] = tested on: Human fibrosarcoma HT-1080 tumor tissue homogenate; format: biochemical
How it was run: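 Compounds at 1 mg/ml were incubated at 37°C with 100 μg acidized tissue homogenate (pH 6.0). Activation by homogenate proteases was assessed.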

[4] = BALB/C mice receiving 90 mg/kg injection
[5] = single intravenous injection, 125 mg/kg, 10 BALB/C mice per group
[6] = single intravenous injection, 150 mg/kg, 10 BALB/C mice per group
[7] = single intravenous injection, 175 mg/kg, 10 BALB/C mice per group
[8] = single intravenous injection, 200 mg/kg, 10 BALB/C mice per group
[9] = Table 26, A1-A4 24 mg/kg, Paclitaxel 8 mg/kg
[10] = Table 28, BALB/C mice, 4T1, lung metastases day 27, A1-A4 12 mg/kg, Paclitaxel 4 mg/kg
[11] = Table 38, B1-B4 25 mg/kg, Docetaxel […]
[12] = Table 40, BALB/C mice, 4T1, lung metastases day 27, B1-B4 17.6 μmol/kg, Docetaxel 3 μmol/kg
[13] = S1′-S4′ 24 mg/kg, Paclitaxel 8 mg/kg
[14] = 4T1, BALB/C mice, lung, day 27, S1′-S4′ 12 mg/kg, Paclitaxel 4 mg/kg

COCCOCCOCCOCCOCCOCC(=O)NCCCC[C@H](NC(=O)COCCOCCOCCOCCOCCOC)C(=O)N[C@H](C)C(=O)N[C@H](C)C(=O)N[C@H](CC(N)=O)C(=O)Nc1ccc(COC(=O)OC(C(=O)OC2C[C@@]3(O)[C@@H](OC(=O)c4ccccc4)[C@H]4[C@](C)(C(=O)[C@H](OC(C)=O)C(=C2C)C3(C)C)[C@@H](O)CC2OC[C@]24OC(C)=O)[C@@H](NC(=O)c2ccccc2)c2ccccc2)cc1 (stereo partly drawn) [Compound A2]
Behaviors and death observed (BALB/C mice; [4]): no pilo-erection, hair tousle and lackluster, lethargy, stoop, irritable reaction and death
MTD (maximum tolerated dose) (BALB/C mice; BALB/C mice): about 90 mg/kg
Mortality rate (%) (BALB/C mice; [5]): 10%
Number of dead animal (BALB/C mice; [5]): 2
Mortality rate (%) (BALB/C mice; [6]): 0%
Number of dead animal (BALB/C mice; [6]): 0
Mortality rate (%) (BALB/C mice; [7]): 0%
Number of dead animal (BALB/C mice; [7]): 0
Mortality rate (%) (BALB/C mice; [8]): 0%
Number of dead animal (BALB/C mice; [8]): 0
Size of tumor (mm^3) Day 10 [1, 9]: 55.19 ± 56.2 mm^3
inhibitory rate on tumor Day 10 [1, 9]: 81.3%
Size of tumor (mm^3) Day 24 [1, 9]: 44.43 ± 47.9 mm^3
inhibitory rate on tumor Day 24 [1, 9]: 88.3%
Inhibition on tumor growth, in words [1]: greatly improved
solubility in Solvent 1 ([2]; solvent 1 (injectable water), Table 22, Paclitaxel series): soluble
Concentration achieved, completely dissolved in both solvent 1 and solvent 2 ([2]; solvent 2 45% alcohol, 55% injectable water): 10 mg/mL
solubility in Solvent 2 ([2]; solvent 2 (45% alcohol, 55% injectable water), Table 22, Paclitaxel series): soluble
Solubility in water, in words ([2]; water): can directly dissolve in water
Activation ratio (%) in homogenates from different tumor tissues (Human heart; Human heart, 1 mg/ml, acidized homogenate pH6.0, Paclitaxel release by HPLC): none
Inhibitory rate on metastasis (4T1 cells; [10]): 93.9%
Number of metastasized tumor (4T1 cells; [10]): 9 ± 5
Inhibitory effect on tumor metastasis, in words (4T1 cells): greatly improved

COCCOCC(=O)NCCCC[C@H](NC(=O)COCCOC)C(=O)N[C@H](C)C(=O)N[C@H](C)C(=O)N[C@H](CC(N)=O)C(=O)Nc1ccc(COC(=O)OC(C(=O)OC2C[C@@]3(O)[C@@H](OC(=O)c4ccccc4)[C@H]4[C@](C)(C(=O)[C@H](O)C(=C2C)C3(C)C)[C@@H](O)CC2OC[C@]24OC(C)=O)[C@@H](NC(=O)OC(C)(C)C)c2ccccc2)cc1 (stereo partly drawn) [Compound B1]
Behaviors and death observed (BALB/C mice; BALB/C mice receiving 175 mg/kg injection): no pilo-erection, hair tousle and lackluster, lethargy, stoop, irritable reaction and death
MTD (maximum tolerated dose) (BALB/C mice; BALB/C mice): about 150 mg/kg
Mortality rate (%) (BALB/C mice; [5]): 0%
Number of dead animal (BALB/C mice; [5]): 0
Mortality rate (%) (BALB/C mice; [6]): 0%
Number of dead animal (BALB/C mice; [6]): 0
Mortality rate (%) (BALB/C mice; [7]): 0%
Number of dead animal (BALB/C mice; [7]): 0
Mortality rate (%) (BALB/C mice; [8]): 20%
Number of dead animal (BALB/C mice; [8]): 2
Size of tumor (mm^3) Day 10 [1, 11]: 92.4 ± 59.66 mm^3
inhibitory rate on tumor Day 10 [1, 11]: 67.8
Size of tumor (mm^3) Day 24 [1, 11]: 128.45 ± 105.56 mm^3
inhibitory rate on tumor Day 24 [1, 11]: 66.3
Inhibition on tumor growth, in words [1]: greatly improved
solubility in Solvent 1 ([2]; solvent 1 (injectable water), Table 33, water-soluble Docetaxel series): insoluble
solubility in Solvent 2 ([2]; solvent 2 (30% alcohol, 70% injectable water), Table 33, water-soluble Docetaxel series): soluble
activation efficiency (%) (Human heart; Table 34, Human heart, 1 mg/ml, acidized homogenate, Docetaxel release by HPLC): 12.2%
Inhibitory rate on metastasis (4T1 cells; [12]): 96.0
Number of metastasized tumor (4T1 cells; [12]): 5 ± 3
Inhibitory effect on tumor metastasis, in words (4T1 cells): greatly improved
activation efficiency (%) ([3]; Table 34, Human fibrosarcoma HT-1080, 1 mg/ml, 100 μg acidized homogenate, Docetaxel release by HPLC): 79.1%

COc1cccc2c1C(=O)c1c(O)c3c(c(O)c1C2=O)C[C@@](O)(C(C)=O)C[C@@H]3O[C@H]1C[C@H](NC(=O)OCc2ccc(NC(=O)[C@H](CC(N)=O)NC(=O)[C@H](C)NC(=O)[C@H](C)NC(=O)CCCCCN3C(=O)C=CC3=O)cc2)[C@H](O)[C@H](C)O1 [Compound S5, 4-N—(N—(N—(N-(6-maleimidocaproyl)-L-alanyl)-L-alanyl)-L-asparaginyl)-amino benzyl alcohol-daunorubicin-carbamate]
Activation Efficiencies (%) (Human heart; Human heart homogenate, 1 mg/ml compound): 3.5%
Activation Efficiencies (%) ([3]; Human fibrosarcoma HT-1080 tumor tissue homogenate (30 μg/ml), 1 mg/ml compound): 98.4%

COCCOCCOCCOCCOCCOCC(=O)N[C@H](C)C(=O)N[C@H](C)C(=O)N[C@H](CC(N)=O)C(=O)Nc1ccc(COC(=O)OC(C(=O)OC2C[C@@]3(O)[C@@H](OC(=O)c4ccccc4)[C@H]4[C@](C)(C(=O)[C@H](OC(C)=O)C(=C2C)C3(C)C)[C@@H](O)CC2OC[C@]24OC(C)=O)[C@@H](NC(=O)c2ccccc2)c2ccccc2)cc1 (stereo partly drawn) [S2′]
Behaviors and death observed (BALB/C mice; [4]): no pilo-erection, hair tousle and lackluster, lethargy, stoop, irritable reaction and death
MTD (maximum tolerated dose) (BALB/C mice; BALB/C mice): about 90 mg/kg
Mortality rate (%) (BALB/C mice; BALB/C mice, single iv, 125 mg/kg): 0%
Number of dead animal (BALB/C mice; BALB/C mice, single iv, 125 mg/kg, 10 animals): 0
Mortality rate (%) (BALB/C mice; BALB/C mice, single iv, 150 mg/kg): 0%
Number of dead animal (BALB/C mice; BALB/C mice, single iv, 150 mg/kg, 10 animals): 0
Mortality rate (%) (BALB/C mice; BALB/C mice, single iv, 175 mg/kg): 0%
Number of dead animal (BALB/C mice; BALB/C mice, single iv, 175 mg/kg, 10 animals): 0
Mortality rate (%) (BALB/C mice; BALB/C mice, single iv, 200 mg/kg): 10%
Number of dead animal (BALB/C mice; BALB/C mice, single iv, 200 mg/kg, 10 animals): 1
Inhibition on tumor growth, in words [1]: greatly improved
Size of tumor (mm^3) Day 10 [1, 13]: 60.17 ± 30.26 mm^3
inhibitory rate on tumor Day 10 [1, 13]: 36.4%
Size of tumor (mm^3) Day 24 [1, 13]: 42.39 ± 62.24 mm^3
inhibitory rate on tumor Day 24 [1, 13]: 83.01%
solubility in Solvent 1 ([2]; Solvent 1 injectable water, dissolution concentration 10 mg/ml): soluble
solubility in Solvent 2 ([2]; Solvent 2: 50% injectable water, 45%-49% propanediol, 1%-5% Tween80, dissolution concentration 10 mg/ml): soluble
Concentration achieved, completely dissolved in both solvent 1 and solvent 2 ([2]; solvent 2 50% injectable water, 42%-49% propanediol, 1%-8% Tween80): 10 mg/mL
Activation ratio (%) in homogenates from different tumor tissues (Human heart; Human heart, 1 mg/ml, 37°): none
Inhibitory rate on metastasis (4T1 cells; [14]): 94.1%
Number of metastasized tumor (4T1 cells; [14]): 8 ± 7
Inhibitory effect on tumor metastasis, in words (4T1 cells): greatly improved

Source: patent US10682371B2, “Small molecule conjugates specifically activated in tumor microenvironment for targeting and use thereof” (priority 2014, dated 2020)
